Experiments:
Format in all cases: cell-based
[1] = tested on: Jurkat human leukemia T cells; assay: Inhibition of Jurkat human leukemia T cell proliferation (MTT reduction); conditions: for % INHIBITION of Jurkat human leukemia T cell proliferation: 100 μg/ml sequence, 48 h, 2.5×10^5 cells/ml; for % INHIBITION of Jurkat proliferation at suboptimal concentration: 5.0 μg/ml of each 6 base sequence, alone or two together
Description: Cells were seeded in 6 (1 ml/well), 24 (0.5 ml/well) or 96 (0.1 ml/well) well flat-bottom microplates and were maintained at 37° C. in a 5% CO2 atmosphere. Unless stated otherwise, 2.5×10^5 cells/ml were incubated with 0 μg/ml (control) and 100 μg/ml (treated) of 2 to 45 base sequences containing A, C, G and T for 48 h.
MTT was measured at a wavelength of 570 nm using a multiplate spectrophotometer reader (ELX800, Bio-TEK Instruments Inc., Winooski, Vt.).
Jurkat human leukemia T cells are an atypical multi-drug resistant human suspension tumor cell model.

[2] = tested on: THP-1 human acute monocytic leukemia cells; assay: Cytokine production by THP-1 cells (ELISA); conditions: THP-1, 1×10^6 cells, 100 μg/ml, 48 h; for ↑ IL-12 (fold increase treated vs control cells): p70 complex and free p40
Description: (§1) Unless stated otherwise, 1×10^6 cells were incubated with 100 μg/ml of each of the sequences tested for 48 h at 37° C. in 5% CO2. Production of cytokines IL-6, IL-10, IL-12, IL-1beta and TNF-alpha was determined in pg/ml in 100 μl of culture supernatant using the appropriate commercial ELISA (BioSource, Camarillo Calif.). The IL-12 ELISA measures both IL-12 p70 complex and free p40 subunit. Results are expressed as the “fold” (×) increase in cytokine production by treated cells compared to control cells.
THP-1 human acute monocytic leukemia cells were incubated with 2, 3, 6, 9, 12, 14, 15 and 18 base GT sequences and production of the cyotkine IL-6 was determined (Table 35).
THP-1 human acute monocytic leukemia cells were incubated with 6 base GT, AG, CG, GG, AGT and CGT sequences and production of the cytokines IL-12 and IL-6 was determined (Table 36).
THP-1 human acute monocytic leukemia cells were incubated with 6 base GT sequences, having either an oxygen (phosphodiester) or a sulfur (phosphorothioate) as the nonbridging atom on the phosphate groups and production of the cytokine IL-12 was determined (Table 39).
THP-1 human acute monocytic leukemia cells were incubated with 6 base GT SEQ ID NO:25, having either an oxygen (phosphodiester) or a sulfur (phosphorothioate) as the nonbridging atom on the phosphate groups and production of the cytokine IL-12 was determined (Table 40).

[3] = tested on: Jurkat human leukemia T cells; assay: Cell cycle stage in Jurkat cells (propidium iodide flow cytometry); conditions: Jurkat, 24 h, 100 μg/ml
Description: Cell cycle stage was determined using a […]™ PLUS DNA commercial kit (Becton Dickinson). Briefly, nuclei from cells were obtained by dissolving the cell membrane in a nonionic detergent, eliminating the cell cytoskeleton and nuclear proteins with trypsin, digesting the cellular RNA with RNase and stabilizing the nuclear chromatin with spermine. Propidium iodide was added to the cell nuclei and their fluorescence was analyzed in a flow cytometer equipped with electronic doublet discrimination capability (FACSCalibur, Becton Dickinson, San Jose, Calif.). Accumulation of cells in G0/G1, early S (SE), mid S (SM), late S (SL) or G2/M phases of the cell cycle was analyzed using MODFIT LT software (Verity Software House Inc., Topsham, Mass.).
Exponentially growing Jurkat human leukemia T cells (Table 28) and MCF-7 human breast cancer cells (5×10^5 cells/ml) (Table 29) were incubated for 24 h with 2, 6, 15, 18, 27 and 45 base sequences containing A, C, G and T. The cells were collected and centrifuged and cell cycle stage was determined.
Jurkat human cell leukemia T cells (1×10^6 cells/ml) were incubated for 24 h with 6 base GT SEQ ID NO:25, conplementary 6 base AC SEQ ID NO:79 and 6 base GT SEQ ID NO:25+6 base AC SEQ ID NO:79. GT SEQ ID NO:25 and AC SEQ ID NO:79 were hybridized by mixing the oligonucleotides (1:1) and heating for 10 minutes at 65° C. As controls, GT SEQ ID NO:25 and AC SEQ ID NO:79 were heated for 10 minutes at 65° C. (Table 30).

[4] = tested on: human peripheral blood mononuclear cells; assay: Cytokine production by human PBMC (ELISA); conditions: PBMC of 7 healthy humans, 100 μg/ml, 48 h
Description: as §1
Peripheral blood mononuclear cells (hereinafter, “PBMCs”) were isolated from 7 healthy humans by Ficoll-Hypaque (Amersham Pharmacia Biotech, Baie d'Urfée, Québec, Canada) by density gradient centrifugation of whole blood. PBMCs were incubated with 6 base GT, AGT, CGT, AG, CG and GG sequences and production of the cytokines IL-1beta, IL-6, IL-10 and IL-12 were determined.

chimpanzee PBMCs = assay: Cytokine production by chimpanzee PBMC (ELISA); conditions: PBMC of 4 healthy chimpanzees, 100 μg/ml, 48 h
Description: as §1
PBMCs were isolated from 4 healthy chimpanzees as in Example 35. Chimpanzee PBMCs were incubated with 6 base GT, AGT, CGT, AG, CG and GG sequences and production of the cytokines IL-10, IL-12 and TNF-alpha was determined (Table 41).

rhesus monkey PBMCs = assay: Cytokine production by rhesus monkey PBMC (ELISA); conditions: PBMC of 4 healthy rhesus monkeys, 100 μg/ml, 48 h
Description: as §1
PBMCs were isolated from 4 healthy rhesus monkeys as in Example 35. PBMCs were incubated with 6 base GT, AGT, CGT, AG, CG ands GG sequences and production of the cytokines IL-6, IL-12 and TNF-alpha was determined (Table 42).

Row | Sequence | % INHIBITION of Jurkat human leukemia T cell proliferation [1] [%] | ↑ IL-6 (fold increase treated vs control cells) [2] [x] | ↑ IL-12 (fold increase treated vs control cells) [2] [x] | IL-1 beta fold increase: mean +/− SD [4] | IL-6 fold increase: mean +/− SD [4] | IL-10 fold increase: mean +/− SD [4] | IL-12 fold increase: mean +/− SD [4] | further results
1 | AAAGAGGGGCATGACCCGGTGCGGGGGTTCTTGCACTCGGCATAG (unmodified DNA) [BCG A-1, reference compound] | 6 | 2.6 | 1.9 | – | – | – | – | % of cells in phase: G0/G1 [3]: 19.8%; % of cells in phase: G2/M [3]: 12.0%; % of cells in phase: SE [3]: 31.7%; % of cells in phase: SL [3]: 14.0%; % of cells in phase: SM [3]: 22.5%; Arrest (cell cycle) [3]: Mid SM
2 | AGGTGA [SEQ ID NO:31] | 10 | 4.9 | 1.9 | – | – | – | – | % of cells in phase: G0/G1 [3]: 35.2%; % of cells in phase: G2/M [3]: 17.1%; % of cells in phase: SE [3]: 29.1%; % of cells in phase: SL [3]: 8.2%; % of cells in phase: SM [3]: 10.4%; Arrest (cell cycle) [3]: Mid SE
3 | ATGTAT (unmodified DNA) [SEQ ID NO:30] | 16 | 9.8 | 4.8 | 1.1 +/− 0.2 fold increase | 4.6 +/− 4.4 fold increase | 1.0 +/− 0.1 fold increase | 1.3 +/− 0.2 fold increase | IL-10 fold increase: mean +/− SD (chimpanzee PBMCs): 1.4 +/− 0.4 fold increase; IL-12 fold increase: mean +/− SD (chimpanzee PBMCs): 10.7 +/− 7.0 fold increase; TNF-alpha fold increase: mean +/− SD (chimpanzee PBMCs): 5.9 +/− 3.3 fold increase; IL-10 fold increase: mean +/− SD (rhesus monkey PBMCs): 1.9 +/− 1.4 fold increase; IL-12 fold increase: mean +/− SD (rhesus monkey PBMCs): 6.0 +/− 1.9 fold increase; TNF-alpha fold increase: mean +/− SD (rhesus monkey PBMCs): 6.9 +/− 4.7 fold increase
4 | CTGTCT [SEQ ID NO:36] | 19 | 15.9 | 2.0 | 1.2 +/− 0.3 fold increase | 5.3 +/− 3.6 fold increase | 1.0 +/− 0.1 fold increase | 1.2 +/− 0.3 fold increase | IL-10 fold increase: mean +/− SD (chimpanzee PBMCs): 3.0 +/− 2.1 fold increase; IL-12 fold increase: mean +/− SD (chimpanzee PBMCs): 13.4 +/− 8.9 fold increase; TNF-alpha fold increase: mean +/− SD (chimpanzee PBMCs): 12.4 +/− 6.3 fold increase; IL-10 fold increase: mean +/− SD (rhesus monkey PBMCs): 1.0 +/− 0.1 fold increase; IL-12 fold increase: mean +/− SD (rhesus monkey PBMCs): 10.7 +/− 4.6 fold increase; TNF-alpha fold increase: mean +/− SD (rhesus monkey PBMCs): 15.3 +/− 3.6 fold increase
5 | GCCGAGAAGGTGCGCAACCTGCCGGCTGGCCACGGACTGAACGCT (unmodified DNA) [BCG A-7, reference compound] | 4 | – | 0.5 | – | – | – | – | –
6 | GGGTCC [SEQ ID NO:35] | 20 | 21.3 | 1.9 | – | – | – | – | –
7 | GGGTCT [SEQ ID NO:33] | 15 | 3.1 | 1.2 | – | – | – | – | –
8 | GGGTTT [SEQ ID NO:40] | 31 | 14.0 | −1.2 | – | – | – | – | –
9 | GGTTGG [SEQ ID NO:41] | 43 | 16.0 | 3.3 | 3.2 +/− 3.0 fold increase | 7.8 +/− 12.8 fold increase | 1.0 +/− 0.1 fold increase | 4.9 +/− 8.6 fold increase | % INHIBITION of Jurkat proliferation at suboptimal concentration [1]: 4%; IL-10 fold increase: mean +/− SD (chimpanzee PBMCs): 9.1 +/− 7.7 fold increase; IL-12 fold increase: mean +/− SD (chimpanzee PBMCs): 15.3 +/− 10.0 fold increase; TNF-alpha fold increase: mean +/− SD (chimpanzee PBMCs): 14.1 +/− 7.3 fold increase; IL-10 fold increase: mean +/− SD (rhesus monkey PBMCs): 1.9 +/− 1.5 fold increase; IL-12 fold increase: mean +/− SD (rhesus monkey PBMCs): 11.5 +/− 5.9 fold increase; TNF-alpha fold increase: mean +/− SD (rhesus monkey PBMCs): 14.1 +/− 8.2 fold increase
10 | GTGTGTGTG (chemistry not given here) [SEQ ID NO:12] | 47 | 5.4 | – | – | – | – | – | –
11 | GTGTGTGTGTGT [SEQ ID NO:14] | 51 | 1.3 | – | 1.1 +/− 0.2 fold increase | 2.0 +/− 1.5 fold increase | 1.0 +/− 0.1 fold increase | 2.0 +/− 1.1 fold increase | –
12 | GTGTGTGTGTGTGTG (unmodified DNA) [SEQ ID NO:16] | 58 | 2.6 | – | – | – | – | – | –
13 | TCGTTC [SEQ ID NO:37] | 20 | 12.9 | 2.2 | 1.2 +/− 0.4 fold increase | 7.5 +/− 9.8 fold increase | 1.0 +/− 0.1 fold increase | 1.4 +/− 1.1 fold increase | IL-10 fold increase: mean +/− SD (chimpanzee PBMCs): 3.4 +/− 2.6 fold increase; IL-12 fold increase: mean +/− SD (chimpanzee PBMCs): 14.1 +/− 10.0 fold increase; TNF-alpha fold increase: mean +/− SD (chimpanzee PBMCs): 11.4 +/− 6.4 fold increase; IL-10 fold increase: mean +/− SD (rhesus monkey PBMCs): 1.1 +/− 0.2 fold increase; IL-12 fold increase: mean +/− SD (rhesus monkey PBMCs): 10.0 +/− 3.8 fold increase; TNF-alpha fold increase: mean +/− SD (rhesus monkey PBMCs): 14.7 +/− 3.1 fold increase
14 | TGTGTGTGT (unmodified DNA) [SEQ ID NO:11] | 45 | 5.4 | – | – | – | – | – | –
15 | TGTGTGTGTGTG [SEQ ID NO:13] | 49 | 5.7 | – | 2.4 +/− 1.9 fold increase | 12.1 +/− 6.5 fold increase | 1.2 +/− 0.4 fold increase | 4.4 +/− 5.3 fold increase | –
16 | TGTGTGTGTGTGTG (chemistry not given here) [SEQ ID NO:15] | 47 | 1.0 | – | – | – | – | – | proliferation, cell cycle arrest and apoptosis of Jurkat T cells (summary in words) ([1]; M. phlei murA derived sequences): did not inhibit proliferation of, induce cell cycle arrest in or induce apoptosis of Jurkat T cells
17 | TTGTGG [SEQ ID NO:39] | 35 | 6.6 | 0.0 | – | – | – | – | % INHIBITION of Jurkat proliferation at suboptimal concentration [1]: 4%
